From patent publication US4287189A, “O,S-Dialkyl O-oxysulfonylphenyl phosphorothiolates and phosphorodithioates” (priority 1980, dated 1981)
In brackets after ≈: the same amount, converted by molar mass.

Tests used:
[1] = tested on: Two-spotted spider mite (TSM); test: Mite test, sprayed infested bean leaf discs, percent killed after 24 hours; type: in vivo; settings: Tetranychus urticae, foliar, lethal concentration at which 50% of the pests are killed
Source text: Two-spotted spider mite
(§1) A test solution containing 600 ppm of test compound is made by dissolving the test compound in a solvent (acetone:methanol, 1:1), adding surfactant and then water to give an acetone:methanol:water system of 10:10:80. A 1:1 mixture of an alkylarylpolyether-alcohol (commercially available under the trademark Triton X-155) and a modified phthalic glycerol alkyd resin (commercially available under the trademark Triton B-1956) can be utilized at the equivalent of one ounce per gallon of test solution as a surfactant.
(§2) For the mite test, infested bean (Phaseolus limeanus) leaf discs (1.25 inches in diameter) containing about 50 mites and for green peach aphid tests, infested broccoli (Brassica oleracea italica) leaves or portions thereof containing about 50 aphids are placed in a Petri dish lid on a moistened piece of cotton. The leaves are then sprayed with the test solution using a rotating turntable. They are held for 24 hours and then the percent killed is determined.

Mexican bean beetle (BB) = test: Bean beetle test, sprayed bean leaves infested with third instar larvae, percent killed after 48 hours; type: in vivo; settings: Epilachna varivestis, lethal concentration at which 50% of the pests are killed
Source text: Mexican bean beetle (BB)
as §1
(§3) For the bean beetle and armyworm test, detached bean leaves on pieces of moistened filter paper are sprayed as above for the mite test in similar dishes and allowed to dry. One such dish is infested with 10 third instar Mexican bean beetle larvae, while another is infested with 10 third instar southern armyworm larvae. The dishes are covered. After holding for 48 hours, the percent killed is obtained.

Boll weevil (BW) = test: Boll weevil test, sprayed jars with adult boll weevils, percent kill after 48 hours; type: in vivo; settings: Anthonomus grandis, lethal concentration at which 50% of the pests are killed
Source text: as §1
For the boll weevil and house fly tests, half pint glass canning jars with a screened top are used. Food is supplied for the boll weevil (apple) and for the house fly (sugar water). The test insects consist of 10 adult boll weevils and 20 adult house flies. The jars containing the insects are sprayed using the turntable. The percent kill of boll weevil is determined 48 hours after the application. In the house fly test, a percent knockdown is determined one hour after application, the percent kill after 24 hours.

Corn rootworm ova = test: Southern corn rootworm ova test, sprayed filter paper, 6 days; type: in vivo, Diabrotica undecimpunctata howardi; settings: 144 h, lethal concentration at which 50% of the pests are killed
Source text: (§4) Diabrotica undecimpunctata howardi
as §1
(§5) For tests involving the southern corn rootworm ova and larvae, two layers of 4.25 cm. filter papers are placed in small, Petri dishes, and sprayed on the turntable with a 600 ppm solution of the test compound and air dried. About 100 eggs in about one milliliter of water are pipetted onto the filter paper and the dishes covered. These are held for 6 days and examined under the microscope. The percent kill values for ova and larvae are determined.

Green peach aphid (GPA) = test: Green peach aphid test, sprayed infested broccoli leaves, percent killed after 24 hours; type: in vivo; settings: Myzus persicae, lethal concentration at which 50% of the pests are killed
Source text: as §1, §2

Corn rootworm larva = test: Southern corn rootworm larvae test, sprayed filter paper, 6 days; type: in vivo, Diabrotica undecimpunctata howardi; settings: 144 h, lethal concentration at which 50% of the pests are killed
Source text: as §4, §1, §5

Southern armyworm (AW) = test: Armyworm test, sprayed bean leaves infested with third instar larvae, percent killed after 48 hours; type: in vivo; settings: Spodoptera eridania, lethal concentration at which 50% of the pests are killed
Source text: as §1, §3

Question: Which LC50 [1] does the source give for `CCCSP(=O)(OCC)Oc1ccc(S(=O)(=O)Oc2ccccc2)cc1` (centres unmarked) [Example II, O-Ethyl O-[4-(phenoxysulfonyl)phenyl]S-n-propyl phosphorothiolate] here?
Answer: 9.8 µg/mL (≈ 23.5 µM)

Question: And the LC50 (Mexican bean beetle (BB))?
Answer: 75 µg/mL (≈ 180 µM)

Question: And the LC50 (Boll weevil (BW))?
Answer: 345 µg/mL (≈ 828 µM)

Question: What about the LC50 (Corn rootworm ova) of the same molecule?
Answer: > 600 µg/mL

Question: And the LC50 (Green peach aphid (GPA))?
Answer: 7.5 µg/mL (≈ 18 µM)

Question: What about the LC50 (Corn rootworm larva) of the same molecule?
Answer: 32 µg/mL (≈ 76.8 µM)

Question: What about the LC50 (Southern armyworm (AW)) of the same molecule?
Answer: 32 µg/mL (≈ 76.8 µM)

Question: Which LC50 [1] does the source give for `CCCSP(=O)(OCC)Oc1ccc(S(=O)(=O)Oc2ccc([N+](=O)[O-])cc2)cc1` (centres unmarked) [III, O-Ethyl-O-[4-(4'-nitrophenoxysulfonyl)phenyl]S-n-propyl phosphorothiolate] here?
Answer: 5 µg/mL (≈ 10.8 µM)

Question: What about the LC50 (Mexican bean beetle (BB)) of the same molecule?
Answer: 75 µg/mL (≈ 163 µM)

Question: And the LC50 (Boll weevil (BW))?
Answer: > 600 µg/mL

Question: What about the LC50 (Corn rootworm ova) of the same molecule?
Answer: > 600 µg/mL

Question: What about the LC50 (Green peach aphid (GPA)) of the same molecule?
Answer: 6.2 µg/mL (≈ 13.4 µM)

Question: What about the LC50 (Corn rootworm larva) of the same molecule?
Answer: 75 µg/mL (≈ 163 µM)

Question: What about the LC50 (Southern armyworm (AW)) of the same molecule?
Answer: 45 µg/mL (≈ 97.5 µM)

Question: How did the LC50 [1] turn out when `CCCSP(=O)(OCC)Oc1ccc(S(=O)(=O)Oc2ccc(Cl)cc2)cc1` (centres unmarked) [IV, O-[4-(4'-chlorophenoxysulfonyl)phenyl]O-ethyl S-n-propyl phosphorothiolate] was run?
Answer: 2.9 µg/mL (≈ 6.43 µM)

Question: What about the LC50 (Mexican bean beetle (BB)) of the same molecule?
Answer: 75 µg/mL (≈ 166 µM)

Question: And the LC50 (Boll weevil (BW))?
Answer: 138 µg/mL (≈ 306 µM)

Question: What about the LC50 (Corn rootworm ova) of the same molecule?
Answer: 142 µg/mL (≈ 315 µM)

Question: And the LC50 (Green peach aphid (GPA))?
Answer: 2.5 µg/mL (≈ 5.54 µM)

Question: What about the LC50 (Corn rootworm larva) of the same molecule?
Answer: 4.1 µg/mL (≈ 9.09 µM)

Question: And the LC50 (Southern armyworm (AW))?
Answer: 75 µg/mL (≈ 166 µM)

Question: `CCOP(=O)(Oc1ccc(S(=O)(=O)Oc2ccccc2)cc1)SC(C)CC` (centres unmarked) [IX, S-sec-Butyl O-ethyl O-[4-(phenoxysulfonyl)phenyl]phosphorothiolate] was tested. Which LC50 [1] did it give?
Answer: 5.8 µg/mL (≈ 13.5 µM)

Question: What about the LC50 (Mexican bean beetle (BB)) of the same molecule?
Answer: 15 µg/mL (≈ 34.8 µM)

Question: What about the LC50 (Boll weevil (BW)) of the same molecule?
Answer: 75 µg/mL (≈ 174 µM)

Question: What about the LC50 (Corn rootworm ova) of the same molecule?
Answer: 230 µg/mL (≈ 534 µM)

Question: And the LC50 (Green peach aphid (GPA))?
Answer: 2.8 µg/mL (≈ 6.5 µM)

Question: What about the LC50 (Corn rootworm larva) of the same molecule?
Answer: 8.4 µg/mL (≈ 19.5 µM)

Question: And the LC50 (Southern armyworm (AW))?
Answer: 45 µg/mL (≈ 105 µM)

Question: With `CCCSP(=O)(OCC)Oc1ccc(S(=O)(=O)Oc2ccc(C#N)cc2)cc1` (centres unmarked) [VI, O-[4-(4'-cyanophenoxysulfonyl)phenyl]O-ethyl S-n-propyl phoshorothiolate] as the molecule, how does the LC50 [1] read?
Answer: 6.8 µg/mL (≈ 15.4 µM)

Question: And the LC50 (Mexican bean beetle (BB))?
Answer: 49 µg/mL (≈ 111 µM)

Question: What about the LC50 (Boll weevil (BW)) of the same molecule?
Answer: > 600 µg/mL

Question: What about the LC50 (Corn rootworm ova) of the same molecule?
Answer: > 600 µg/mL

Question: What about the LC50 (Green peach aphid (GPA)) of the same molecule?
Answer: 18 µg/mL (≈ 40.8 µM)

Question: And the LC50 (Corn rootworm larva)?
Answer: 38 µg/mL (≈ 86.1 µM)

Question: What about the LC50 (Southern armyworm (AW)) of the same molecule?
Answer: 41 µg/mL (≈ 92.9 µM)

Question: With `CCCSP(=O)(OCC)Oc1ccc(S(=O)(=O)Oc2ccc(SC)cc2)cc1` (centres unmarked) [VII, O-Ethyl-O-[4-(4'-methylthiophenoxysulfonyl)phenyl]S-n-propyl phosphorothiolate] as the molecule, how does the LC50 [1] read?
Answer: 2.4 µg/mL (≈ 5.19 µM)

Question: And the LC50 (Mexican bean beetle (BB))?
Answer: 162 µg/mL (≈ 350 µM)

Question: And the LC50 (Boll weevil (BW))?
Answer: 550 µg/mL (≈ 1190 µM)

Question: And the LC50 (Corn rootworm ova)?
Answer: > 600 µg/mL

Question: And the LC50 (Green peach aphid (GPA))?
Answer: 6.4 µg/mL (≈ 13.8 µM)

Question: What about the LC50 (Corn rootworm larva) of the same molecule?
Answer: 130 µg/mL (≈ 281 µM)

Question: What about the LC50 (Southern armyworm (AW)) of the same molecule?
Answer: 27 µg/mL (≈ 58.4 µM)

Question: `CCCSP(=O)(OCC)Oc1ccc(S(=O)(=O)Oc2ccc(C)cc2)cc1` (centres unmarked) [VIII, O-Ethyl-O-[4-(4'-methylphenoxysulfonyl)phenyl]S-n-propyl phosphorothiolate] was tested. Which LC50 [1] did it give?
Answer: 20 µg/mL (≈ 46.5 µM)

Question: What about the LC50 (Mexican bean beetle (BB)) of the same molecule?
Answer: 150 µg/mL (≈ 348 µM)

Question: What about the LC50 (Boll weevil (BW)) of the same molecule?
Answer: > 600 µg/mL

Question: What about the LC50 (Corn rootworm ova) of the same molecule?
Answer: 550 µg/mL (≈ 1280 µM)

Question: What about the LC50 (Green peach aphid (GPA)) of the same molecule?
Answer: 7.5 µg/mL (≈ 17.4 µM)

Question: And the LC50 (Corn rootworm larva)?
Answer: 33 µg/mL (≈ 76.7 µM)

Question: What about the LC50 (Southern armyworm (AW)) of the same molecule?
Answer: 75 µg/mL (≈ 174 µM)

Question: What does the source list for `CCOP(=O)(Oc1ccc(S(=O)(=O)Oc2ccccc2)cc1)SCC(C)C` (centres unmarked) [XI, O-Ethyl S-isobutyl O-[4-(phenoxysulfonyl)phenyl]phosphorothiolate]?
Answer: LC50 [1]: 6.6 µg/mL (≈ 15.3 µM); LC50 (Mexican bean beetle (BB)): 26 µg/mL (≈ 60.4 µM); LC50 (Boll weevil (BW)): 75 µg/mL (≈ 174 µM); LC50 (Corn rootworm ova): > 600 µg/mL; LC50 (Green peach aphid (GPA)): 1.3 µg/mL (≈ 3.02 µM); LC50 (Corn rootworm larva): 142 µg/mL (≈ 330 µM); LC50 (Southern armyworm (AW)): 49 µg/mL (≈ 114 µM)

Question: What does the source list for `CCCSP(=O)(OC)Oc1ccc(S(=O)(=O)Oc2ccc([N+](=O)[O-])cc2)cc1` (centres unmarked) [XII, O-Methyl O-[4-(4'-nitrophenoxysulfonyl)phenyl]S-n-propyl phosphorothiola]?
Answer: LC50 [1]: 6.6 µg/mL (≈ 14.8 µM); LC50 (Mexican bean beetle (BB)): 54 µg/mL (≈ 121 µM); LC50 (Boll weevil (BW)): 500 µg/mL (≈ 1120 µM); LC50 (Corn rootworm ova): > 600 µg/mL; LC50 (Green peach aphid (GPA)): 26 µg/mL (≈ 58.1 µM); LC50 (Corn rootworm larva): 75 µg/mL (≈ 168 µM); LC50 (Southern armyworm (AW)): 45 µg/mL (≈ 101 µM)

Question: What does the source list for `CCCSP(=S)(OCC)Oc1ccc(S(=O)(=O)Oc2ccccc2)cc1` (centres unmarked) [XIII, O-Ethyl O-[4-(phenoxysulfonyl)phenyl]S-n-propyl phosphorodithiolate]?
Answer: LC50 [1]: 8 µg/mL (≈ 18.5 µM); LC50 (Mexican bean beetle (BB)): 150 µg/mL (≈ 347 µM); LC50 (Boll weevil (BW)): 150 µg/mL (≈ 347 µM); LC50 (Corn rootworm ova): > 600 µg/mL; LC50 (Green peach aphid (GPA)): 38 µg/mL (≈ 87.9 µM); LC50 (Corn rootworm larva): 10 µg/mL (≈ 23.1 µM); LC50 (Southern armyworm (AW)): 75 µg/mL (≈ 173 µM)

Question: Which LC50 [1] does the source give for `CCCCSP(=O)(OCC)Oc1ccc(S(=O)(=O)Oc2ccccc2)cc1` (centres unmarked) [X] here?
Answer: 5 µg/mL (≈ 11.6 µM)

Question: And the LC50 (Mexican bean beetle (BB))?
Answer: 27 µg/mL (≈ 62.7 µM)

Question: And the LC50 (Boll weevil (BW))?
Answer: > 600 µg/mL

Question: What about the LC50 (Corn rootworm ova) of the same molecule?
Answer: > 600 µg/mL

Question: What about the LC50 (Green peach aphid (GPA)) of the same molecule?
Answer: 8.6 µg/mL (≈ 20 µM)

Question: And the LC50 (Corn rootworm larva)?
Answer: 75 µg/mL (≈ 174 µM)

Question: And the LC50 (Southern armyworm (AW))?
Answer: 41 µg/mL (≈ 95.2 µM)
